US7951827B2, “Synthesis and antiprotozoal activity of dicationic 3,5-diphenylisoxazoles” (The University of North Carolina at Chapel Hill, priority 2005, dated 2011)
Structures can show the parent of a compound that is named as a salt. Where two headings read alike, the source gives them in different places.

Tests used:
Plasmodium falciparum = test: In vitro antiprotozoal activity against Plasmodium falciparum; type: cell-based
Protocol: (§1) In vitro antiprotozoal activities, see Ismail, M. A., et al., J. Med. Chem. 46, 4761-4769 (2003), and cytotoxicity were measured following established protocols, see Balz, T., et al., EMBO J., 4, 1273-1277 (1985); Räz. B., et al., Acta Trop., 68:139-147 (1997); and Sperandeo, N. R. et al., Chem. Biochem., 4, 69-73 (2003). […] Other positive controls employed were melarsoprol (against T. brucei), chloroquine, and artemisinin (against P. falciparum), and podophyllotoxin (against VERO cells).

[1] = tested on: Trypanosoma brucei brucei; test: In vitro antiprotozoal activity against Trypanosoma brucei brucei; type: cell-based
Protocol: as §1

[2] = Cytotoxicity to VERO cells; type: cell-based, African green monkey (Cercopithecus Aethiops); conditions: African green monkey (Cercopithecus aethiops)
Protocol: as §1

VERO cells = test: Cytotoxicity to VERO cells; type: cell-based, African green monkey (Cercopithecus Aethiops)
Protocol: as §1

[3] = Plasmodium falciparum, Table 1, read-out: IC50 (μM) Plasmodium falciparum
[4] = Trypanosoma brucei, Table 1, read-out: IC50 (μM) Trypanosoma brucei brucei
[5] = IC50 (μM) Cytotoxicity VERO cells
[6] = Trypanosoma brucei, read-out: IC50 values against T. brucei brucei
[7] = Table 1, read-out: IC50 (μM) Trypanosoma brucei brucei
[8] = Table 1, read-out: IC50 (μM) Plasmodium falciparum
[9] = Plasmodium falciparum, read-out: antiplasmodial IC50 values (P. falciparum)
[10] = Table 1, read-out: IC50 (μM) Cytotoxicity VERO cells

SMILES	melting point	IC50 (Plasmodium falciparum; [3])	IC50 [1, 4]	IC50 (Plasmodium falciparum; [9])	IC50 [2, 5]	also measured
C[C@@H]1CC[C@H]2[C@@H](C)C(=O)O[C@@H]3O[C@@]4(C)CC[C@@H]1[C@]32OO4 [Artemisinin, reference compound]		0.0067 µM				
CCN(CC)CCCC(C)Nc1ccnc2cc(Cl)ccc12 (stereo not drawn) [Chloroquine, reference compound]						IC50 (Plasmodium falciparum; Plasmodium falciparum, read-out: IC50 (μM) Plasmodium falciparum): 0.104 µM
c1cc(-c2cc(-c3ccc(C4=NCCN4)cc3)on2)ccc1C1=NCCN1 [Compound 5, 3,5-Bis[4-(2-imidazolinyl)phenyl]isoxazole dihydrochloride]						IC50 [1, 7]: 0.0872 µM; IC50 (Plasmodium falciparum; [8]): 0.0041 µM; IC50 (VERO cells): 1.81 µM
c1cc(C2=NCCN2)cc(-c2cc(-c3ccc(C4=NCCN4)cc3)on2)c1 [Compound 15, 3-[3-(2-Imidazolinyl)phenyl]-5-[4-(2-imidazolinyl)phenyl]isoxazole dihydrochloride]						IC50 [1, 7]: 1.55 µM; IC50 (Plasmodium falciparum; [8]): 0.0512 µM; IC50 (VERO cells; [10]): 65 µM
Cl.Cl.N=C(N)c1cccc(-c2cc(-c3ccc(C(=N)N)cc3[N+](=O)[O-])on2)c1 [Compound 16, 5-(4-Amidino-2-nitrophenyl)-3-(3-amidinophenyl)isoxazole dihydrochloride]	225 °C	0.0259 µM	0.009 µM	0.008 to 0.03 µM	48 µM	IC50 [1, 6]: 0.0035 to 0.009 µM
c1cc(C2=NCCN2)cc(-c2cc(-c3ccc(C4=NCCN4)cc3)no2)c1 [Compound 24, 3-[4-(2-Imidazolinyl)phenyl]-5-[3-(2-imidazolinyl)phenyl]isoxazole dihydrochloride]						IC50 [1, 7]: 0.974 µM; IC50 (Plasmodium falciparum; [8]): 0.077 µM; IC50 (VERO cells; [10]): 30.2 µM
c1cc(C2=NCCN2)cc(-c2cc(-c3cccc(C4=NCCN4)c3)on2)c1 [Compound 34, 3,5-Bis[3-(2-imidazolinyl)phenyl]isoxazole dihydrochloride]						IC50 [1, 7]: 18.5 µM; IC50 (Plasmodium falciparum; [8]): 0.227 µM; IC50 (VERO cells; [10]): 26.2 µM
Cl.Cl.N=C(N)c1cccc(-c2cc(-c3cc(C(=N)N)ccc3[N+](=O)[O-])on2)c1 [Compound 35, 5-(5-Amidino-2-nitrophenyl)-3-(3-amidinophenyl)isoxazole dihydrochloride]	222 °C (dec.)	0.334 µM	1.63 µM		9.8 µM	
COc1ccc(C(=N)N)cc1-c1cc(-c2cc(C(=N)N)ccc2OC)on1.Cl.Cl [Compound 41, 3,5-Bis(5-amidino-2-methoxyphenyl)isoxazole dihydrochloride]	240 °C (dec.)	0.0211 µM	0.0042 µM	0.008 to 0.03 µM	79.9 µM	IC50 [1, 6]: 0.0035 to 0.009 µM
COc1ccc(C(=N)NC(C)C)cc1-c1cc(-c2cc(C(=N)NC(C)C)ccc2OC)on1.Cl.Cl [Compound 42, 3,5-Bis[5-(N-isopropyl)amidino-2-methoxyphenyl]isoxazole dihydrochloride]	185 °C (dec.)	0.0932 µM	0.374 µM		21.7 µM	
COc1ccc(C2=NCCN2)cc1-c1cc(-c2cc(C3=NCCN3)ccc2OC)on1 [Compound 43, 3,5-Bis[5-(2-imidazolinyl)-2-methoxyphenyl]isoxazole dihydrochloride]						IC50 [1, 7]: 0.0448 µM; IC50 (Plasmodium falciparum; [8]): 0.0114 µM; IC50 (VERO cells): 164 µM
Nc1nc(N)nc(Nc2ccc([As]3SCC(CO)S3)cc2)n1 (stereo not drawn) [Melarsoprol, reference compound]						IC50 ([1]; Trypanosoma brucei, read-out: IC50 (μM) Trypanosoma brucei brucei): 0.00637 µM
COc1cc([C@@H]2c3cc4c(cc3[C@H](O)[C@H]3COC(=O)[C@H]23)OCO4)cc(OC)c1OC [Podophyllotoxin, reference compound]						IC50 [2, 10]: 0.0186 µM

The next lines start with results.

melting point	IC50 (Plasmodium falciparum; [3])	IC50 [1, 4]	IC50 (Plasmodium falciparum; [9])	SMILES	IC50 [2, 5]	also measured
287 to 292 °C				N=C(N)c1ccc(-c2cc(-c3ccccc3)on2)cc1 (as salt: hydrochloride) [Compound 2, 3-(4-Amidinophenyl)-5-phenylisoxazole]		
262 to 265 °C	3.3 µM	1.72 µM		Cl.N=C(N)c1ccc(-c2cc(-c3ccccc3)no2)cc1 [Compound 1, 5-(4-Amidinophenyl)-3-phenylisoxazole hydrochloride]	19.1 µM	
	3.3 µM	1.12 µM		N=C(N)c1ccc(-c2cc(-c3ccccc3)on2)cc1 [Compound 2, 3-(4-Amidinophenyl)-5-phenylisoxazole]	18.5 µM	
	0.0226 µM	0.0051 µM		N=C(N)c1ccc(-c2cc(-c3ccc(C(=N)N)cc3)on2)cc1 [Compound 3, 3,5-Bis(4-amidinophenyl)isoxazole dihydrochloride]	2.13 µM	IC50 [1, 6]: 0.0035 to 0.009 µM; IC50 ([1]; dihydrochloride, read-out: IC50 values against T. brucei brucei): 0.0051 µM
> 350 °C (dec.)	0.0149 µM	0.0139 µM	0.008 to 0.03 µM	Cl.Cl.N=C(N)c1ccc(-c2cc(-c3ccc(C(=N)N)cc3[N+](=O)[O-])on2)cc1 [Compound 6, 5-(4-Amidino-2-nitrophenyl)-3-(4-amidinophenyl)isoxazole dihydrochloride]	15.8 µM	
> 350 °C (dec.)	0.0079 µM	0.0155 µM	< 0.008 µM	Cl.Cl.N=C(N)c1ccc(-c2cc(-c3ccc(C(=N)N)cc3Cl)on2)cc1 [Compound 7, 5-(4-Amidino-2-chlorophenyl)-3-(4-amidinophenyl)isoxazole dihydrochloride]	41 µM	
350 °C (dec.)	0.0401 µM	0.0324 µM		Cl.Cl.N=C(N)c1ccc(-c2cc(-c3ccc(C(=N)N)cc3[N+](=O)[O-])no2)cc1 [Compound 9, 3-(4-Amidino-2-nitrophenyl)-5-(4-amidinophenyl)isoxazole dihydrochloride]	22.2 µM	
	0.0555 µM	0.0232 µM		N=C(N)c1ccc(-c2cc(-c3ccc(C(=N)N)cc3Cl)no2)cc1 [Compound 10, 3-(4-Amidino-2-chlorophenyl)-5-(4-amidinophenyl)isoxazole dihydrochloride]	5.69 µM	
	0.0578 µM	0.0063 µM	0.0578 µM	N=C(N)c1ccc(-c2cc(-c3cccc(C(=N)N)c3)no2)cc1 [Compound 13, 3-(3-Amidinophenyl)-5-(4-amidinophenyl)isoxazole dihydrochloride]	24.1 µM	IC50 [1, 6]: 0.0035 to 0.009 µM
242 to 245 °C	0.0187 µM	0.0063 µM	0.008 to 0.03 µM	Cl.Cl.N=C(N)c1cccc(-c2cc(-c3ccc(C(=N)N)cc3Cl)on2)c1 [Compound 17, 5-(4-Amidino-2-chlorophenyl)-3-(3-amidinophenyl)isoxazole dihydrochloride]	82.7 µM	IC50 [1, 6]: 0.0035 to 0.009 µM
348 °C	0.0071 µM	0.0212 µM	< 0.008 µM	Cl.Cl.N=C(N)c1ccc(-c2cc(-c3cc(C(=N)N)ccc3Cl)no2)cc1 [Compound 20, 3-(5-Amidino-2-chlorophenyl)-5-(4-amidinophenyl)isoxazole dihydrochloride]	5.67 µM	
336 to 338 °C	0.0025 µM	0.0035 µM		Cl.Cl.N=C(N)c1ccc(-c2cc(-c3cccc(C(=N)N)c3)on2)cc1 [Compound 22, 3-(4-Amidinophenyl)-5-(3-amidinophenyl)isoxazole di hydrochloride]	31.2 µM	IC50 [1, 6]: 0.0035 to 0.009 µM
356 to 358 °C (dec.)	0.0035 µM	0.0209 µM	< 0.008 µM	Cl.Cl.N=C(N)c1ccc(-c2cc(-c3cc(C(=N)N)ccc3Cl)on2)cc1 [Compound 25, 5-(5-Amidino-2-chlorophenyl)-3-(4-amidinophenyl)isoxazole dihydrochloride]	71.4 µM	
240 to 242 °C	0.0116 µM	0.0043 µM	0.008 to 0.03 µM	COc1ccc(C(=N)N)cc1-c1cc(-c2ccc(C(=N)N)cc2)no1.Cl.Cl [Compound 26, 5-(5-Amidino-2-methoxyphenyl)-3-(4-amidinophenyl)isoxazole dihydrochloride]	52.8 µM	IC50 [1, 6]: 0.0035 to 0.009 µM
210 °C (dec.)	0.0141 µM	0.0116 µM	0.008 to 0.03 µM	Cl.Cl.N=C(N)c1cccc(-c2cc(-c3ccc(C(=N)N)cc3Cl)no2)c1 [Compound 28, 3-(4-Amidino-2-chlorophenyl)-5-(3-amidinophenyl)isoxazole dihydrochloride]	87.4 µM	
	0.0306 µM	0.0463 µM		N=C(N)c1cccc(-c2cc(-c3cc(C(=N)N)ccc3Cl)no2)c1 [Compound 39, 3-(5-Amidino-2-chlorophenyl)-5-(3-amidinophenyl)isoxazole dihydrochloride]	55.5 µM	
210 °C (dec.)	0.0174 µM	0.027 µM	0.008 to 0.03 µM	COc1ccc(C(=N)N)cc1-c1cc(-c2cccc(C(=N)N)c2)on1.Cl.Cl [Compound 40, 3-(5-Amidino-2-methoxyphenyl)-5-(3-amidinophenyl)isoxazole dihydrochloride]	215 µM	
